Tested on: A375 cells
Experiment: Cell viability assay in A375 cells (XTT)
Assay type: cell-based
Conditions: Homo sapiens, A-375, 72 h, three days after compound addition
Description: The cell viability assay in A375 cells is set up in a 96-well plate format using XTT.
XTT is a yellow tetrazolium salt that is cleaved to an orange formazan dye by the mitochondria of metabolically active cells. The procedure allows for rapid determination in a microtitre plate, to give reproducible and sensitive results.
A375 cells are grown in DMEM media containing 10% FBS and 1 mM sodium pyruvate. Cells are trypsinized and seeded at 1000 cells/well. After allowing the cells to adhere overnight, compound is added to the wells at the following final concentrations: 10, 3, 1, 0.3, 0.1, 0.03, 0.01, 0.001, and 0.0001 μM. The assay is set up in triplicates for each concentration. DMSO concentrations are kept at 0.5%/well. Three days after compound addition, the XTT assay is performed. Wells are washed once with PBS. 100 μL of DMEM media without phenol red or FBS is added to each well. A working solution of XTT containing 1 mg/ml XTT and 100 μL of PMS (stock concentration 0.383 mg/ml) per 5 ml is prepared. 50 μL of the working solution of XTT is added to each well. Absorbance of the plate is read at 465 nm using a Spectramax 190 (Molecular Devices). The absorbance from wells with media and XTT alone, but without cells is considered the blank and subtracted from readings from all wells.
Percentage viability is calculated considering the blank subtracted value from wells treated with DMSO alone as 100% viable. GI50 values are calculated using Graphpad Prism, using non-linear regression curve fit for sigmoidal dose response (variable slope).
The cell viability assay is further described in Scudiero, et. al., Cancer Research (1988) 48, 4827-4833; Weislow, et. al., J. Natl. Cancer Institute, (1989) 81, 577-586; and Roehm, et. al., J. Immunol. Methods [1991]142:257-265.

| SMILES | GI50 [nM] |
| --- | --- |
| Cc1c(Nc2ccc(Br)cc2F)c(C(=O)NOCCO)c2n(c1=O)CCC2 [Compound 25] | 10 |
| NC(=O)c1c(Nc2ccc(I)cc2F)cc(=O)n2c1CCC2 [Compound 38] | 73 |
| O=C(NOCC1CC1)c1c(Nc2ccc(Br)cc2F)cc(=O)n2c1CCC2 [Compound 4] | 14 |
| CCONC(=O)c1c(Nc2ccc(Br)cc2F)c(C)c(=O)n2c1CCC2 [Compound 27] | 60 |
| O=C(NOCC1CC1)c1c(Nc2ccc(Br)cc2F)c(F)c(=O)n2c1CCC2 [Compound 20] | 55 |
| CONC(=O)c1c(Nc2ccc(Br)cc2F)cc(=O)n2c1CCC2 [Compound 6] | 150 |
| CCONC(=O)c1c(Nc2ccc(Br)cc2F)cc(=O)n2c1CCC2 [Compound 10] | 40 |
| Cc1c(Nc2ccc(Br)cc2F)c(C(=O)NOCC2CC2)c2n(c1=O)CCC2 [Compound 24] | 36 |
| O=C(NOCCO)c1c(Nc2ccc(I)cc2F)cc(=O)n2c1CCC2 [Compound 40] | 0.7 |

Next, values leading:

| GI50 [nM] | SMILES |
| --- | --- |
| 0.8 | O=C(NOCC1CC1)c1c(Nc2ccc(I)cc2F)cc(=O)n2c1CCC2 [Compound 39] |
| 0.4 | O=C(NOCC1CC1)c1c(Nc2ccc(I)cc2F)c(F)c(=O)n2c1CCC2 [Compound 45] |
| 9 | CONC(=O)c1c(Nc2ccc(I)cc2F)cc(=O)n2c1CCC2 [Compound 41] |
| 3.6 | CCONC(=O)c1c(Nc2ccc(I)cc2F)cc(=O)n2c1CCC2 [Compound 42] |
| 6.7 | O=C(NOCCO)c1c(Nc2ccc(I)cc2F)c(F)c(=O)n2c1CCC2 [Compound 46] |

From patent US20090275606A1, “Heterocyclic Compounds as MEK Inhibitors” (Novartis AG, priority 2008, published 2009)
